Calls of active or inactive are those of the source. The calls are words filed in the database; no cut-off is given here.
Assays:
[1] = test system: MDA-MB-468; test: Anticancer activity in human MDA-MB-468 cells xenografted mouse model assessed as reduction in tumor volume at 10 mg/kg, ip treated for 33 days; type: functional; settings: MDA-MB-468, ip, 792 h, time 33 day
[2] = test system: MDA-MB-468; test: Induction of autophagy in human MDA-MB-468 cells assessed as increase in ATG7 expression at 1 to 5 uM incubated for 24 hrs by Western blot analysis; type: functional, cell-based; settings: dose 1-5 µM
[3] = test system: MDA-MB-231; test: Antiinvasive activity against in human MDA-MB-231 cells assessed as reduction in MMP2 expression measured upto 72 hrs by Western blot analysis; type: functional, cell-based; settings: dose 0.1-0.2 µM, time hrs <=72
[4] = test system: MDA-MB-468; test: Induction of cell cycle arrest in human MDA-MB-468 cells assessed as accumulation of cells at G1 phase at 2 uM measured after 24 hrs by flow cytometry (reference value: 26.6%); type: functional
[5] = test system: MDA-MB-231; test: Inhibition of Akt phosphorylation in human MDA-MB-231 cells measured after 24 hrs by Western blot analysis; type: cell-based
[6] = Toxicity in NOD/SCID mouse assessed as cytotoxicity in lung at 10 mg/kg, ip treated for 33 days by H&E staining analysis; type: organism-based; settings: in vivo, 792 h, time 33 day
[7] = test system: MDA-MB-468; test: Induction of apoptosis in human MDA-MB-468 cells assessed as increase in cleaved caspase 3 at 1 to 5 uM measured after 24 hrs by Western blot analysis; type: functional, cell-based; settings: dose 1-5 µM
[8] = test system: MDA-MB-468; test: Induction of cell cycle arrest in human MDA-MB-468 cells assessed as accumulation of cells at G2 phase at 2 uM measured after 24 hrs by flow cytometry (reference value: 26.5%); type: functional
[9] = test system: MDA-MB-468; test: Induction of cell cycle arrest in human MDA-MB-468 cells assessed as accumulation of cells at G2 phase at 1 uM measured after 24 hrs by flow cytometry (reference value: 26.5%); type: functional
[10] = test system: MDA-MB-231; test: Induction of apoptosis in human MDA-MB-231 cells assessed as late apoptotic cells at 1 uM measured after 24 hrs by Annexin V/Propidium iodide stain based Flow cytometry (reference value: 2.78%); type: functional
[11] = Toxicity in NOD/SCID mouse assessed as cytotoxicity in kidney at 10 mg/kg, ip treated for 33 days by H&E staining analysis; type: organism-based; settings: in vivo, 792 h, time 33 day
[12] = test system: MDA-MB-231; test: Induction of autophagy in human MDA-MB-231 cells assessed as elimination of p62 at 1 to 5 uM incubated for 24 hrs by Western blot analysis; type: functional, cell-based; settings: dose 1-5 µM
[13] = test system: MDA-MB-231; test: Induction of cell cycle arrest in human MDA-MB-231 cells assessed as accumulation of cells at G1 phase at 2 uM measured after 24 hrs by flow cytometry (reference value: 47.7%); type: functional
[14] = test system: MDA-MB-231; test: Induction of apoptosis in human MDA-MB-231 cells assessed as early apoptotic cells at 2 uM measured after 24 hrs by Annexin V/Propidium iodide stain based Flow cytometry (reference value: 3.34%); type: functional
[15] = test system: MDA-MB-468; test: Induction of cell cycle arrest in human MDA-MB-468 cells assessed as accumulation of cells at S phase at 1 uM measured after 24 hrs by flow cytometry (reference value: 46.9%); type: functional
[16] = test system: MDA-MB-468; test: Induction of autophagy in human MDA-MB-468 cells assessed as increase in ATG5 expression at 1 to 5 uM incubated for 24 hrs by Western blot analysis; type: functional, cell-based; settings: dose 1-5 µM
[17] = test system: MDA-MB-231; test: Induction of mitochondrial depolarization in human MDA-MB-231 cells assessed as aggregates at 5 uM in dark by JC10 staining based fluorescence microscopy (reference value: 94.4%); type: functional
[18] = Selectivity index, ratio of IC50 for human MCF-10A cells to IC50 for human MBA-MB-231 cells; type: functional
[19] = test system: MDA-MB-231; test: Effect on PI3K expression in human MDA-MB-231 cells measured at 1 to 5 uM after 24 hrs by Western blot analysis; type: functional, cell-based; settings: dose 1-5 µM
[20] = test system: MDA-MB-468; test: Induction of apoptosis in human MDA-MB-468 cells assessed as decrease in Bcl2/Bax ratio at 1 to 5 uM measured after 24 hrs by Western blot analysis; type: functional, cell-based; settings: dose 1-5 µM
[21] = organism: Homo sapiens; test: Inhibition of PI3K (unknown origin) by ADP-Glo assay
[22] = test system: MDA-MB-468; test: Effect on Akt expression in human MDA-MB-468 cells measured at 1 to 5 uM after 24 hrs by Western blot analysis; type: functional, cell-based; settings: dose 1-5 µM
[23] = test system: MDA-MB-468; test: Cytotoxicity against human MDA-MB-468 cells assessed as reduction in cell viability incubated for 96 hrs by MTT method; type: functional, cell-based; settings: MDA-MB-468, 96 h
[24] = test system: MDA-MB-231; test: Induction of cell cycle arrest in human MDA-MB-231 cells assessed as accumulation of cells at G1 phase at 5 uM measured after 24 hrs by flow cytometry (reference value: 47.7%); type: functional
[25] = test system: MDA-MB-468; test: Antiproliferative activity against human MDA-MB-468 cells assessed as supression of long term proliferative capacity measured for 2 weeks by Colony formation assay; type: functional, cell-based; settings: dose 0.05-0.2 µM
[26] = test system: MDA-MB-231; test: Induction of autophagy in human MDA-MB-231 cells assessed as cleaved PARP at 1 to 5 uM incubated for 24 hrs in presence of chloroquine by Western blot analysis relative to control; type: functional, cell-based; settings: dose 1-5 µM
[27] = test system: L02; test: Cytotoxicity against human L02 cells assessed as reduction in cell viability incubated for 96 hrs by MTT method; type: cell-based; settings: L02, 96 h
[28] = test system: MDA-MB-468; test: Inhibition of Akt phosphorylation in human MDA-MB-468 cells measured after 24 hrs by Western blot analysis; type: cell-based; settings: dose 1-5 µM
[29] = test system: MDA-MB-468; test: Induction of mitochondrial depolarization in human MDA-MB-468 cells assessed as aggregates at 2 uM in dark by JC10 staining based fluorescence microscopy (reference value: 91.6%); type: functional
[30] = test system: MDA-MB-468; test: Anticancer activity in human MDA-MB-468 cells xenografted mouse model assessed as reduction in tumor weight at 10 mg/kg, ip treated for 33 days; type: functional; settings: MDA-MB-468, ip, 792 h, time 33 day
[31] = test system: MDA-MB-231; test: Effect on Akt expression in human MDA-MB-231 cells measured at 1 to 5 uM after 24 hrs by Western blot analysis; type: functional, cell-based; settings: dose 1-5 µM
[32] = test system: MDA-MB-468; test: Antitumor activity against human MDA-MB-468 cells xenografted in NOD/SCID mouse assessed as increase in TUNEL expression in tumor tissue at 5 to 10 mg/kg, ip treated for 33 days by immunohistochemical analysis; type: functional, organism-based; settings: dose 5-10 mg/kg, time 33.0 day
[33] = test system: MDA-MB-231; test: Induction of mitochondrial depolarization in human MDA-MB-231 cells assessed as monomers at 2 uM in dark by JC10 staining based fluorescence microscopy (reference value: 5.6%); type: functional
[34] = Toxicity in NOD/SCID mouse assessed as cytotoxicity in spleen at 10 mg/kg, ip treated for 33 days by H&E staining analysis; type: organism-based; settings: in vivo, 792 h, time 33 day
[35] = test system: MDA-MB-231; test: Antiinvasive activity against in human MDA-MB-231 cells assessed as reduction in MMP9 expression measured upto 72 hrs by Western blot analysis; type: functional, cell-based; settings: dose 0.1-0.2 µM, time hrs <=72
[36] = test system: MCF-10A; test: Cytotoxicity against human MCF-10A cells assessed as reduction in cell viability incubated for 96 hrs by MTT method; type: cell-based
[37] = Toxicity in NOD/SCID mouse assessed as change in body weight at 5 to 10 mg/kg, ip treated for 33 days; type: organism-based; settings: in vivo, 792 h, dose 5-10 mg/kg, time 33 day

- inhibition [21]: inactive
Compound: C=C1C(=O)C2=C[C@H]1CCC(=O)[C@]1(C)[C@H](O)CCC(C)(C)[C@H]1C[C@H]2O
- inhibition in vivo at 10 mg/kg [1]: 44.8%
- Activity [2]: Active
- Activity [3]: Active
- Activity [4]: 14.3%
- inhibition [5]: Active
- Activity [6]: Non-Toxic
- Activity [7]: Active
- Activity [8]: 58.1%
- Activity [9]: 57.9%
- Activity [10]: 11.2%
- Activity [11]: Non-Toxic
- Activity [12]: Active
- Activity [13]: 33.8%
- Activity [14]: 8.05%
- Activity [15]: 27.9%
- Activity [16]: Active
- Activity [17]: 23.8%
- Selectivity Index [18]: 14
- Activity [19]: inactive
- Activity [20]: Active
- Activity [22]: inactive
- IC50 [23]: 0.0716 µM
- Activity [24]: 27.5%
- Activity [25]: Active
- Activity [26]: inactive
- IC50 [27]: > 5 µM
- inhibition [28]: Active
- Activity [29]: 21.5%
- inhibition in vivo at 10 mg/kg [30]: 58%
- Activity [31]: inactive
- Activity [32]: Active
- Activity [33]: 43.1%
- Activity [34]: Non-Toxic
- Activity [35]: Active
- IC50 [36]: 1.05 µM
- Activity [37]: Non-Toxic

— ChEMBL document CHEMBL5036330, “Discovery of 8,9-seco-ent-Kaurane Diterpenoids as Potential Leads for the Treatment of Triple-Negative Breast Cancer” (J Med Chem, 2021)
